From US20250051275A1, “PYRROLE DERIVATIVE OR PHARMACEUTICALLY OR SITOLOGICALLY ACCEPTABLE SALTS THEREOF, AND COMPOSITION FOR PREVENTION, AMELIORATION OR TREATMENT OF GASTROINTESTINAL DISORDERS COMPRISING SAME AS ACTIVE INGREDIENT” (HANA PHARM CO., LTD., priority 2021, published 2025) come the findings set out here.

Data set [1] in a line: Storage stability (related substance identification test). In kind it is physicochemical. To be noted: for storage stability: stored at −2 to 8° C., in % (unit assumed). An excerpt:
An attempt was made to evaluate the storage stability over time of the compound of Example 7 of the present invention and the compound of Comparative Example 1 (which is the deuterium-unsubstituted form of the compound of Example 7) depending on the presence of deuterium substitution.

The nature of data set [2]: Pharmacokinetics in rats according to deuterium substitution. To be noted: male rats, oral 10 mg/kg; for concentration at 0.5 h / concentration at 1 h / concentration at 2 h / concentration at 5 h / concentration at 8 h: Sprague-Dawley, rat, plasma, read-out: Blood concentration; for concentration at 0.5 h: 0.5 hr after administration; for concentration at 1 h: 1 hr after administration; for concentration at 2 h: 2 hr after administration; for concentration at 5 h: 5 hr after administration; for concentration at 8 h: 8 hr after administration. In kind it is in vivo. The protocol: In order to evaluate the impact on the deuterium substituent in terms of pharmacokinetics, the blood concentrations of Example 35 and Comparative Example 2 in rats were measured and compared. Six male rats (Sprague-Dawley Rats) were obtained, acclimatized, and then distributed into two groups with three rats per test group. As feed, irradiated solid feed was allowed to be freely consumed, and, as water, tap water disinfected with an ultraviolet sterilizer and micro-filtration device was placed in a polycarbonate drinking bottle and allowed to be freely consumed. Rats were raised in an animal breeding area maintained at a temperature of 23±3° C., with a relative humidity of 50±20%, a ventilation frequency of 10 to 15 times/hr, for a lighting time of 12 hours (lights on at 8 a.m. to lights off at 8 p.m.), and with an illuminance of 150 to 300 Lux.
Blood samples were obtained from the jugular vein at 0.5, 1, 2, 5, and 8 hours after drug administration, respectively. Blood samples were centrifuged (2 to 8° C., 3,200 g, 10 minutes) to obtain plasma. The amount of administered compound into the plasma sample was quantified by using LC-MS/MS.

Data set [3] concerns rats (Sprague-Dawley Rats). The experiment in a line: Acute oral toxicity in rats. The following applies: female rats. The format is in vivo. An excerpt:
An attempt was made to evaluate the acute toxicity of the compound of Example 7 on the fumarate form (Example 41). Twenty female rats (Sprague-Dawley Rats) were obtained, acclimatized, and distributed into a total of four groups, five rats per test group. As feed, irradiated solid feed was allowed to be freely consumed, and, as water, tap water disinfected with an ultraviolet sterilizer and micro-filtration device was placed in a polycarbonate drinking bottle and allowed to be freely consumed. Rats were raised in an animal breeding area maintained at a temperature of 23±3° C., with a relative humidity of 50±20%, a ventilation frequency of 10 to 15 times/hr, for a lighting time of 12 hours (lights on at 8 a.m. to lights off at 8 p.m.), and with an illuminance of 150 to 300 Lux. As the administration, oral administration, the clinically planned route, was selected for evaluation, and, as the administration dose, the highest dose was set at 600 mg/kg, referring to the results of vonoprazan.

For `CNCc1cc(-c2ccccc2F)n(S(=O)(=O)c2ccc(F)cc2)c1` [Comparative Example 1, reference compound], the “storage stability, Results” value in data set [1] (stored at −2 to 8° C. for 3 months) was “Unstable”. For the same compound, the storage stability in data set [1] (1st week) amounted to 90.61; in data set [1] (2nd week), 81.40; in data set [1] (3 months), 53.8; in data set [1] (3rd week) it was 76.47; in data set [1] (4th week) it was 70.39; in data set [1] (Initial), 97.99.
`CNCc1cn(S(=O)(=O)c2cccnc2)c(-c2ccc(F)cc2F)c1OC` [Comparative Example 2, reference compound]: in data set [2], the concentration at 0.5 h was 59.7 ng/mL, the concentration at 1 h is 116 ng/mL, the concentration at 2 h worked out at 83.8 ng/mL and the concentration at 5 h came out at 12.8 ng/mL. For the same compound, in data set [2], the concentration at 8 h amounted to 5.1 ng/mL.
On to `[2H]C([2H])([2H])NCc1cn(S(=O)(=O)c2cccnc2)c(-c2ccc(F)cc2F)c1OC` [Example 35, N-((5-(2,4-difluorophenyl)-4-methoxy-1-(pyridin-3-ylsulfonyl)-1H-pyrrol-3-yl)methyl)methan-d3-amine], for which, in data set [2], the concentration at 0.5 h worked out at 302 ng/mL, the concentration at 1 h was 254 ng/mL, the concentration at 2 h is 199 ng/mL and the concentration at 5 h is 22.6 ng/mL. Besides, in data set [2], the concentration at 8 h was 4.8 ng/mL. Further, the “blood concentration level higher as compared to Comparative Example 2” value in data set [2] (0.5 hours after administration) was 5 times. The “blood concentration level higher as compared to Comparative Example 2” value in data set [2] (after 1 hour) was “at least 2 times”. Besides, the “blood concentration level higher as compared to Comparative Example 2” value in data set [2] (after 2 hours) was “at least 2 times”.
In the case of `O=C(O)/C=C/C(=O)O.[2H]C([2H])([2H])NCc1cc(-c2ccccc2F)n(S(=O)(=O)c2ccc(F)cc2)c1` [Example 41, N-((5-(2-fluorophenyl)-1-((4-fluorophenyl)sulfonyl)-1H-pyrrol-3-yl)methyl)methane-d3-amine Fumarate], the “Survival rate (%)” value was determined as 100% in data set [3] (single oral dose 50 mg/kg), 100% in data set [3] (single oral dose 200 mg/kg), 100% in data set [3] (single oral dose 400 mg/kg) and 0% in data set [3] (single oral dose 600 mg/kg).
